Results as given in patent US20090060875A1, “HCV Vaccines for Chronic HCV Patients” (INTERCELL AG, priority 2004, published 2009).

Experiments:
[1] = system: CD4+ Helper-T-cells; assay: T-cell proliferation assay ([3H]-thymidine) in phase 2 study of chronic HCV patients; type: in vivo, human; conditions: vaccinations at month 0-5, stimulation indices, median of 12 patients per group (FIG. 1), listed as poly-L-Arginine alone
Excerpt: (§1) In the present clinical study, each group consisted of 12 subjects, positive for HLA-A2. Subjects received 6 vaccinations in monthly intervals (at visits 3 to 8). Blood for immunological analyses was drawn prior vaccination and at visits 6 to 8, one month after last vaccination (visit 9), 3 months after last vaccination (visit 10) and 6 months after last vaccination (visit 11). For immunological monitoring of clinical trials, state-of-the-art T cell assays to determine immunological endpoints under GLP/GCP compliance were applied: Interferon-gamma ELIspot Assay, T cell Proliferation Assay, HLA-tetramer/FACS assay. These assays allow reliable measurements of epitope-specific T cell responses induced by the therapeutic HCV vaccine IC41. The vaccine-induced T cell immune responses serve as surrogate parameters of efficacy (Keilholz et al. 2002).
As primary endpoint T-cell immunogenicity was determined by a T-cell proliferation assay. […] Proliferation of cells can be measured by a variety of means; among the most sensitive approaches ranks incorporation of radioactively labeled thymidine into DNA synthesized prior cell division. […] Cells are then harvested onto a filter plate: medium containing free radioactivity is washed away, whereas DNA sticks to the filter. Incorporated radioactivity can be quantified by means of a beta-scintillation counter determining counts-per-minute (cpm). […]

[2] = system: interferon gamma secreting T-cells (CD4+ Helper- and CD8+ cytotoxic T-cells); assay: Interferon-gamma ELIspot assay in phase 2 study of chronic HCV patients; type: in vivo, human; conditions: chronic HCV patients (FIG. 2)
Excerpt: as §1
As secondary endpoints T-cell immunogenicity was determined by interferon gamma ELIspot. ELIspot allows quantification of peptide-specific, functional (i.e. cytokine-secreting) T cells in biological samples like human blood. The basis of the assay is that, T cells upon stimulation with a peptide specifically recognized by the T cell receptor react by secretion of cytokines like IFN-γ. […]
The filter-wells of this plate are coated with a Mab specific for IFN-γ. […] Spots can be counted using automated plate readers. […]

[3] = standard therapy, background; cited from earlier work

| Compound | CD4+ Helper-T-cell proliferation (induction of significant proliferative response) [1] | Induction of interferon gamma secreting T-cells (type I T-cell response) [2] | Side effects [3] |
| --- | --- | --- | --- |
| Poly-L-Arginine | not and neither peptides alone nor poly-L-Arginine alone have this ability | cannot induce any response |  |
| NC(=O)c1ncn([C@@H]2O[C@H](CO)[C@@H](O)[C@H]2O)n1 [Ribavirin, ribavirin] |  |  | teratogenic, mutagenic and carcinogenic potency |
